Assays:
[1] = UV-vis absorption spectrum in acetone; format: physicochemical
Description: Referring now to FIG. 1B, there is shown a synthetic pathway to Reactive Diluent 1, 2, and 3. […] Reactive diluents of the invention are non-white coloured.
The spectra 2a and 2b of Reactive Diluent 3 were recorded in spectroscopy grade acetone, diluted from 1M stock solutions down to 10 μM using serial dilutions. Absorption behaviour was examined from 200 nm to 800 nm, at 1 nm increments, using a ThermoFisher 350 UV-vis spectrophotometer (ThermoFisher Scientific, UK). Absorption maxima at 365, 405, 455, and 500 nm were recorded for comparison.
(§1) Referring also to FIG. 3, there is shown a series of graphs illustrating the absorption behaviour of the resin components in spectroscopy grade acetone, diluted from 1 M stock solutions down to 10 μM using serial dilutions. Absorption behaviour was examined from 200 nm to 800 nm, at 1 nm increments, with absorption maxima quantified at 365, 405, 455, and 500 nm, as indicated in the box in each graph.

[2] = Concentration at which Reactive Diluent 3 acts as a photoinhibitor (absorption vs concentration, inflection point); format: physicochemical
Description: as §1
This was used to determine the concentration at which Reactive Diluent 3 would act as a photoinhibitor for wavelengths of interest. At 365 nm, the inflection point of the logarithmic plot of the linear fit was located at ca 0.015M; 405 nm inflection point was located at 0.0131M; 450 nm inflection point was found at 0.099M; 500 nm inflection point was located at 0.1312M.

SMILES | absorption maximum (λmax) [1] | concentration needed in a resin composition to function as a photoinhibitor [2] | inflection point of the logarithmic plot of the linear fit ([2]; 365 nm, acetone) [M] | inflection point ([2]; 405 nm, acetone) [M] | inflection point ([2]; 450 nm, acetone) [M] | inflection point ([2]; 500 nm, acetone) [M]
C=CCOC(=O)NCC1(C)CC(NC(=O)OCC=C)CC(C)(C)C1 (centres unmarked) [Reactive Diluent 1] | do not exhibit an absorption maximum (λmax) of between 350 and 520 nm |  |  |  |  | 
C=CCNC(=O)NCC1(C)CC(NC(=O)NCC=C)CC(C)(C)C1 (centres unmarked) [Reactive Diluent 2] | do not exhibit an absorption maximum (λmax) of between 350 and 520 nm |  |  |  |  | 
C=CCN1C(=O)CC(=O)N(CC2(C)CC(N3C(=O)CC(=O)N(CC=C)C3=O)CC(C)(C)C2)C1=O (centres unmarked) [Reactive Diluent 3] | ca. 450 nm | at least 0.015 M | ~0.015 | 0.0131 | 0.099 | 0.1312
